Assay results published in patent publication US5380729A, “12-hetero substituted 6,11-ethano-6,11-dihydrobenzo (b) quinolizinium salts and compositions and method of use thereof” (Sterling Winthrop Inc., priority 1993, dated 1995).

Test system: PCP recognition sites
Assay: [3H]TCP Radioreceptor Assay (internal screen)
Type: binding, rat (male Sprague-Dawley
Details: @ 10 μM; rat whole brain membranes; room temperature, 25 min
Description: [^3 H]TCP Radioreceptor Assay (internal screen)
[^3 H]TCP binding to PCP recognition sites was performed as described by Vignon et al. Brain Research 1983, 280, 194°197. Male Sprague-Dawley rats were sacrificed by decapitation, and whole brains were homogenized in 10 volumes (wt/vol) of cold Tris-HCl buffer (50 mM, pH 7.7) using a Brinkmann Polytron (setting 6, 30 sec). The homogenate was centrifuged at 40,000×g for 10 min at 4° C. The supernatant was decanted, and the homogenization and centrifugation steps were repeated twice as described above. Following this, the pellet was resuspended in Tris-HCl (5 mM, pH 7.7) at a tissue concentration of 0.5°0.75 g/ml, and one ml aliquots were frozen at -70° C. until use. The binding characteristics for PCP recognition sites were not altered by the freezing of membrane suspensions.
On the day of the assay, membrane aliquots were thawed, resuspended in fresh 5 mM Tris-HCl buffer at a tissue concentration of 1 mg/ml, and stored on ice until use. Each assay tube contained 100 μl of [^3 H]TCP at a final concentration of approximately 1 nM, 100 μl of various concentrations of the compounds of interest, 500 μl of the tissue suspension and 300 of buffer to a final assay volume of 1 ml and a final protein concentration of 0.5 mg/tube. Non-specific binding was defined by addition of a final concentration of 100 μM PCP to blank tubes. All tubes were incubated at room temperature for 25 min before termination of the reaction by rapid filtration over Whatman GF/B glass fiber filters that had been presoaked in a solution of 0.5% polyethylenimine for at least 1 hr prior to use. Filters were washed with three 4 ml volumes of cold Tris buffer. Following addition of scintillation cocktail, the amount of bound radioactivity was determined by liquid scintillation spectrometry using a Beckman LS 5000TA liquid scintillation counter with an efficiency for tritium of approximately 55% . Inhibition constants (Ki values) were calculated using the EBDA/LIGAND program (McPherson, J. Pharmacol. Meth. 1985, 14, 213-228), purchased from Elsevier/Biosoft, Inc. Results are reported as Ki values or as a percent (%) inhibition of binding at 10

**Q.** Which “Percent inhibition, [3H]TCP (internal screen)” value does the source give for `CC1(C)C2c3ccccc3C(c3cccc[n+]32)C12O[C@H](COCc1ccccc1)[C@@H](COCc1ccccc1)O2` (stereo partly drawn) [Example 9, 12,12-(1R,2R-dibenzyloxymethyl-ethanediolketal)-13,13-dimethyl-6,11-ethano-6,11-dihydrobenzo[b]quinolizinium perchlorate] here?
**A.** 11%

Same assay, conditions: rat whole brain membranes; ~1 nM [3H]TCP; room temperature, 25 min

**Q.** For “12,12-Diethylamino-13-phenyl-6,11-ethano-6,11-dihydrobenzo[b]quinolizinium perchlorate [63(j)]”, which Ki is on record?
**A.** 14400 nM

**Q.** For `CCOC1(OCC)C2c3ccccc3C([n+]3ccccc32)C1(C)C` (single isomer, unassigned) [7(b), 12,12-diethoxy-13,13-dimethyl-6,11-ethano-6,11-dihydrobenzo[b]quinolizinium·-[(-)-DBT]], which Ki is on record?
**A.** 14.1 nM

**Q.** `CCOC1(OCC)C2c3cc(OC)ccc3C([n+]3ccccc32)C1(C)C` (single isomer, unassigned) [20(c), 9-methoxy-12,12-diethoxy-13,13-dimethyl-6,11-ethano-6,11-dihydrobenzo[b]quinolizinium chloride] was tested. Which Ki did it give?
**A.** 7.05 nM

**Q.** `C[C@@H]1C[C@@H](C)OC2(O1)C1c3ccccc3C([n+]3ccccc31)C2(C)C` (single isomer, unassigned) [Example 10(b)] was tested. Which Ki did it give?
**A.** 614 nM

**Q.** How did the Ki turn out when `C[C@@H]1C[C@@H](C)OC2(O1)C1c3ccccc3C([n+]3ccccc31)C2(C)C` (single isomer, unassigned) [Example 10(c)] was run?
**A.** 365 nM

**Q.** `CCOC1(OCC)C2c3ccccc3C(C1Cl)[n+]1ccccc12` (single isomer, unassigned) [Example 42, 6,11-ethano-12,12-diethoxy-13-chloroquinolizinium perchlorate] was tested. Which Ki did it give?
**A.** 319 nM

**Q.** How did the Ki turn out when `CCOC1C2c3ccccc3C([n+]3ccccc32)C1(C)C` (single isomer, unassigned) [Example 49, 6,11-ethano-12-ethoxy-13,13-dimethyl-6,11-dihydrorbenzo[b]quinolizinium perchlorate] was run?
**A.** 515 nM

**Q.** `CCN(CC)C1C2c3ccccc3C(C1C)[n+]1ccccc12` (single isomer, unassigned) [Example 61, 6,11-ethano-12-(diethyl) amino-13-methyl-6,11-dihydrobenzo[b]quinolizinium diperchlorate] was tested. Which Ki did it give?
**A.** 5420 nM

**Q.** `CCOC1(OCC)C2c3c(OC(C)=O)cccc3C([n+]3ccccc32)C1(C)C.[O-][Cl+3]([O-])([O-])[O-]` (stereo not drawn) [15(a), 10-acetoxy-12,12-diethoxy-13,13-dimethyl-6,11-ethano-6,11-dihydrobenzo[b]quinolizinium perchlorate] was tested. Which Ki did it give?
**A.** 26.4 nM

**Q.** `CCOC1(OCC)C2c3c(O)cccc3C([n+]3ccccc32)C1(C)C.[O-][Cl+3]([O-])([O-])[O-]` (stereo not drawn) [15(b), 10-hydroxy-12,12-diethoxy-13,13-dimethyl-6,11-ethano-6,11-dihydrobenzo[b]quinolizinium perchlorate] was tested. Which Ki did it give?
**A.** 7.87 nM

**Q.** With `CCOC1(OCC)C2c3c(O)cccc3C([n+]3ccccc32)C1(C)C` (stereo not drawn) [15(c), 10-hydroxy-12,12-diethoxy-13,13-dimethyl-6,11-ethano-6,11-dihydrobenzo[b]quinolizinium chloride] as the compound, how does the Ki read?
**A.** 6.9 nM

**Q.** Which Ki does the source give for `CCOC1(OCC)C2c3ccccc3C([n+]3ccccc32)C1(CC)CC` (stereo not drawn) [17(c), 12,12-diethoxy-13,13-diethyl-6,11-ethano-6,11-dihydrobenzo[b]quinoliziniumperchlorate] here?
**A.** 10.6 nM

**Q.** `CCOC1(OCC)C2c3c(OC)cccc3C([n+]3ccccc32)C1(C)C` (stereo not drawn) [19(b), 10-methoxy-12,12-diethoxy-13-13-dimethyl-6,11-ethano-6,11-dihydrobenzo[b]quinolizinium perchlorate] was tested. Which Ki did it give?
**A.** 13.2 nM

**Q.** For `CC1(C)C2c3ccccc3C(c3cccc[n+]32)C12OCCCO2` (stereo not drawn) [22(b), 6,11-ethano-12,12-(1,3-propanediolketal)-13,13-dimethyl-6,11-dihydrobenzo[b]quinolizinium chloride], which Ki is on record?
**A.** 3300 nM

**Q.** With `CCOC1(OCC)C2c3cc(C(F)(F)F)ccc3C([n+]3ccccc32)C1(C)C` (stereo not drawn) [23(b), 6,11-ethano-12,12-diethoxy-13,13-dimethyl-9-trifluoromethyl-6,11-dihydrobenzo[b]quinolizinium chloride] as the compound, how does the Ki read?
**A.** 407 nM

**Q.** `CCOC1(OCC)C2c3c(F)cc(F)cc3C([n+]3ccccc32)C1(C)C` (stereo not drawn) [24(b), 6,11-ethano-12,12-diethoxy-13,13-dimethyl-8,10-difluoro-6,11-dihydrobenzo-[b]quinolizinium chloride] was tested. Which Ki did it give?
**A.** 272 nM

**Q.** For `CCOC1(OCC)C2c3ccc(OC)cc3C([n+]3ccccc32)C1(C)C` (stereo not drawn) [25(b), 6,11-ethano-12,12-diethoxy-13,13-dimethyl-8-methoxy-6,11-dihydrobenzo[b]quinolizinium chloride], which Ki is on record?
**A.** 147 nM

**Q.** How did the Ki turn out when `CCOC1(OCC)C2c3ccccc3C([n+]3c(C)cccc32)C1(C)C` (stereo not drawn) [27(b), 6,11-ethano-12,12-diethoxy-13,13-dimethyl-4-methyl-6,11-dihydrobenzo[b]quinolizinium chloride] was run?
**A.** 314 nM

**Q.** How did the Ki turn out when `CCOC1(OCC)C2c3c(OC(C)C)cccc3C([n+]3ccccc32)C1(C)C` (stereo not drawn) [34(b), 6,11-ethano-12,12-diethoxy-13,13-dimethyl-10-isopropoxy-6,11-dihydrobenzo[b]quinolizinium chloride] was run?
**A.** 47.5 nM

**Q.** For `CCOC1(OCC)CC2c3ccccc3C1c1cccc[n+]12` (stereo not drawn) [63(a), 12,12-Diethoxy-6,11-ethano-6,11-dihydrobenzo[b]quinolizinium bromide], which Ki is on record?
**A.** 3590 nM

**Q.** How did the Ki turn out when `CCOC1(OCC)C2c3ccccc3C(C1C)[n+]1ccccc12.[O-][Cl+3]([O-])([O-])[O-]` (stereo not drawn) [63(d), 12,12-Diethoxy-13-methyl-6,11-ethano-6,11-dihydrobenzo[b]quinolizinium perchlorate] was run?
**A.** 49.3 nM

**Q.** How did the Ki turn out when `CCOC1(OCC)C2c3cccc(C)c3C(C1C)[n+]1ccccc12.[O-][Cl+3]([O-])([O-])[O-]` (stereo not drawn) [63(k), 7-Methyl-12,12-diethoxy-13-methyl-6,11-ethano-6,11-dihydrobenzo[b]quinolizinium perchlorate] was run?
**A.** 2460 nM

**Q.** With `CCOC1(OCC)C(C)C2c3ccccc3C1(C)c1cccc[n+]12.[O-][Cl+3]([O-])([O-])[O-]` (stereo not drawn) [63(l), 11-Methyl-12,12-diethoxy-13-methyl-6,11-ethano-6,11-dihydrobenzo[b]quinolizinium perchlorate] as the compound, how does the Ki read?
**A.** 39.3 nM

**Q.** `COC1(OC)C2c3ccccc3C([n+]3ccccc32)C1(C)C.[O-][Cl+3]([O-])([O-])[O-]` (stereo not drawn) [63(m), 12,12-dimethoxy-13,13-dimethyl-6,11-ethano-6,11-dihydrobenzo[b]quinolizinium perchlorate] was tested. Which Ki did it give?
**A.** 111 nM

**Q.** `CCOC1(OCC)C2c3ccccc3C([n+]3ccccc32)C1(C)C` (stereo not drawn) [Example 3, 12,12-diethoxy-13,13-dimethyl-6,11-ethano-6,11-dihydrobenzo[b]quinolizinium hexafluorophosphate] was tested. Which Ki did it give?
**A.** 5.56 nM

**Q.** How did the Ki turn out when `CCOC1(OCC)C2c3ccccc3C([n+]3ccccc32)C1(C)C` (stereo not drawn) [Example 4, 12,12-diethoxy-13,13-dimethyl-6,11-ethano-6,11-dihydrobenzo[b]quinolizinium camphanate] was run?
**A.** 5.66 nM

**Q.** How did the Ki turn out when `CCOC1(OCC)C2c3ccccc3C([n+]3ccccc32)C1(C)C` [Example 5, 12,12-diethoxy-13,13-dimethyl-6,11-ethano-6,11-dihydrobenzo[b]quinolizinium (S)-(+)-CH3 C(Ph)(OH)CO2^-] was run?
**A.** 5.25 nM

**Q.** For `CCOC1(OCC)C2c3ccccc3C([n+]3ccccc32)C1(OCC)OCC` (stereo not drawn) [Example 8, 12,12,13,13,-tetraethoxy-6,11-ethane-6,11-dihydrobenzo[b]quinolizinium perchlorate], which Ki is on record?
**A.** 5180 nM

**Q.** Which Ki does the source give for `CCOC1(OCC)C2c3cccc(OC)c3C([n+]3ccccc32)C1(C)C` (stereo not drawn) [Example 16, 7-methoxy-12,12-diethoxy-13,13-dimethyl-6,11-ethano-6,11-dihydrobenzo[b]quinolizinium hexafluorophosphate] here?
**A.** 1870 nM

**Q.** For `CC1(C)C2c3ccccc3C(c3cccc[n+]32)C12OCCO2` (stereo not drawn) [Example 18, 12,..12-(1; 2-ethanediolketal)-13,13-dimethyl-6,11-ethano-6,11-dihydrobenzo[b]quinolizinium perchlorate], which Ki is on record?
**A.** 4000 nM

**Q.** `CCOC1(OCC)C2c3cc(Cl)ccc3C([n+]3ccccc32)C1(C)C.[O-][Cl+3]([O-])([O-])[O-]` (stereo not drawn) [Example 26, 6,11-ethano-12,12-diethoxy-13,13-dimethyl-9-chloro-6,11-dihydrobenzo[b]quinolizinium perchlorate] was tested. Which Ki did it give?
**A.** 12.4 nM

Same assay, conditions: rat whole brain membranes; ~1 nM [3H]TCP; room temperature, 25 min; hydrate

**Q.** `C[C@@H]1C[C@@H](C)OC2(O1)C1c3ccccc3C([n+]3ccccc31)C2(C)C` (stereo partly drawn) [Example 11, 12,12-(2R,4R-pentanediolketal)-13,13-dimethyl-6,11-ethano-6,11-dihydrobenzo[b]-quinolizinium chloride·1/2 hydrate] was tested. Which Ki did it give?
**A.** 497 nM
